Measurements reported in patent publication US8586747B2, “3,3-dimethyl tetrahydroquinoline derivatives” (Hoffmann-La Roche Inc., priority 2010, dated 2013).

System: AMP-activated protein kinase (AMPK)
Experiment: ADP Quest assay for AMPK activators
Type: biochemical
Design: key: fold AMPK activation with vs without activator at 30 µM
Conditions: fold of AMPK activation to phosphorylate SAMS peptide without and with an activator at the concentration of 30 µM
Procedure, shortened: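 E30, the fold increase in SAMS peptide phosphorylation at 30 µM compound relative to no activator, is derived from kinetic fluorescent detection of ADP (ex 530, em 590 nm). AMPK starts the ATP-containing reaction at room temperature; compounds span […] by 2-fold steps, AMP serves as reference.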

Row | Compound | E30
1 | Cc1ccccc1N1CCN(c2cccc(C3Nc4c(cccc4C(=O)O)CC3(C)C)c2)CC1 (stereo not shown) [Example 94, 3,3-Dimethyl-2-[3-(4-o-tolyl-piperazin-1-yl)-phenyl]-1,2,3,4-tetrahydro-quinoline-8-carboxylic acid] | 1.33
2 | CC(C)[C@@H]1COC(=O)N1c1cccc(C2Nc3ccc(C(=O)NS(=O)(=O)C4CC4)cc3CC2(C)C)c1 (stereo partly drawn) [Example 125, Cyclopropanesulfonic acid {2-[3-((R)-4-isopropyl-2-oxo-oxazolidin-3-yl)-phenyl]-3,3-dimethyl-1,2,3,4-tetrahydro-quinoline-6-carbonyl}-amide] | 1.33
3 | CC1(C)Cc2cc(C(=O)NS(C)(=O)=O)ccc2NC1c1cc(Cl)cc(N2CCOCC2)c1 (stereo not shown) [Example 57, N-[2-(3-Chloro-5-morpholin-4-yl-phenyl)-3,3-dimethyl-1,2,3,4-tetrahydro-quinoline-6-carbonyl]-methanesulfonamide] | 1.25
4 | CC1(C)Cc2cc(C(=O)O)ccc2NC1c1cccnc1 (stereo not shown) [Example 108, 3,3-Dimethyl-2-pyridin-3-yl-1,2,3,4-tetrahydro-quinoline-6-carboxylic Acid] | 1.29
5 | CC1(C)Cc2cc(C(=O)O)ccc2NC1c1cccc(N2CC(=O)NCC2=O)c1 (stereo not shown) [Example 18, 2-[3-(2,5-Dioxo-piperazin-1-yl)-phenyl]-3,3-dimethyl-1,2,3,4-tetrahydro-quinoline-6-carboxylic acid] | 1.41
6 | CC1(C)Cc2cc(C(=O)O)ccc2NC1c1cccc(N2CCNCC2)c1 (stereo not shown) [Example 102, 3,3-Dimethyl-2-(3-piperazin-1-yl-phenyl)-1,2,3,4-tetrahydro-quinoline-6-carboxylic acid] | 1.4
7 | CNC(=O)C(C)(C)Nc1cccc(C2Nc3c(cc(Cl)cc3C(=O)O)CC2(C)C)c1 (stereo not shown) [Example 79, 6-Chloro-3,3-dimethyl-2-[3-(1-methyl-1-methylcarbamoyl-ethylamino)-phenyl]-1,2,3,4-tetrahydro-quinoline-8-carboxylic acid] | 1.33
8 | CC1(C)Cc2cc(C(=O)N3CCC[C@H]3C(=O)O)ccc2NC1c1cccc(N2CCOCC2)c1 (stereo partly shown) [Example 24, 1-[3,3-Dimethyl-2-(3-morpholin-4-yl-phenyl)-1,2,3,4-tetrahydro-quinoline-6-carboxyl]-pyrrolidine-2-carboxylic acid] | 1.3
9 | CC(C)(Oc1cccc(C2Nc3ccc(C(=O)O)cc3CC2(C)C)c1)C(=O)O (stereo not shown) [Example 233, 2-(3-(2-Carboxypropan-2-yloxy)phenyl)-3,3-dimethyl-1,2,3,4-tetrahydroquinoline-6-carboxylic acid] | 1.29
10 | CC1(C)Cc2cc(C(=O)O)ccc2NC1c1ccc(F)c(NC(=O)C2CCC2)c1 (stereo not shown) [Example 194, 2-(3-(Cyclobutanecarboxamido)-4-fluorophenyl)-3,3-dimethyl-1,2,3,4-tetrahydroquinoline-6-carboxylic acid] | 1.25
11 | CC1(C)Cc2cc(C(=O)O)ccc2NC1c1cccc(C(=O)O)c1 (stereo not shown) [Example 7, 2-(3-Carbonyl-phenyl)-3,3-dimethyl-1,2,3,4-tetrahydro-quinoline-6-carboxylic acid] | 1.31
12 | CC1(C)Cc2cc(C(=O)NS(C)(=O)=O)ccc2NC1c1cccc(N2C(=O)OC[C@H]2Cc2ccccc2)c1 (stereo partly drawn) [Example 128, N-{2-[3-((R)4-Benzyl-2-oxo-oxazolidin-3-yl)-phenyl]-3,3-dimethyl-1,2,3,4-tetrahydro-quinoline-6-carbonyl}-methanesulfonamide] | 1.26
13 | CC1(C)Cc2cc(C(=O)O)ccc2NC1c1cc(F)cc(N2CCCC2=O)c1 (stereo not shown) [Example 76, 2-[3-Fluoro-5-(2-oxo-pyrrolidin-1-yl)-phenyl]-3,3-dimethyl-1,2,3,4-tetrahydro-quinoline-6-carboxylic acid] | 1.47
14 | CC(C)(Nc1cccc(C2Nc3ccc(C#N)cc3CC2(C)C)c1)C(=O)O (stereo not shown) [Example 38, 2-[3-(6-Cyano-3,3-dimethyl-1,2,3,4-tetrahydro-quinolin-2-yl)-phenylamino]-2-methyl-propionic acid] | 2.12
15 | CC1(C)Cc2cc(C(=O)O)ccc2NC1c1cc(Cl)cc(NC(=O)c2ccccc2)c1 (stereo not shown) [Example 202, 2-(3-Benzamido-5-chlorophenyl)-3,3-dimethyl-1,2,3,4-tetrahydroquinoline-6-carboxylic acid] | 1.22
16 | CCN1CCCC1CNC(=O)c1cccc(C2Nc3ccc(C(=O)O)cc3CC2(C)C)c1 (stereo not shown) [Example 205, 2-(3-((1-Ethylpyrrolidin-2-yl)methylcarbamoyl)phenyl)-3,3-dimethyl-1,2,3,4-tetrahydroquinoline-6-carboxylic acid] | 1.38
17 | CN1CCN(c2cccc(C3Nc4ccc(C(=O)NS(C)(=O)=O)cc4CC3(C)C)c2)CC1 (stereo not shown) [Example 96, N-{3,3-Dimethyl-2-[3-(4-methyl-piperazin-1-yl)-phenyl]-1,2,3,4-tetrahydro-quinoline-6-carbonyl}-methanesulfonamide] | 1.5

Row | Compound | E30
18 | CC1(C)Cc2cc(C(=O)O)ccc2NC1c1ccccc1NS(C)(=O)=O (stereo not shown) [Example 223, 3,3-Dimethyl-2-(2-(methylsulfonamido)phenyl)-1,2,3,4-tetrahydroquinoline-6-carboxylic acid] | 1.94
19 | CC(C)NC(=O)c1cccc(C2Nc3ccc(C(=O)O)cc3CC2(C)C)c1 (stereo not shown) [Example 173, 2-(3-(Isopropylcarbamoyl)phenyl)-3,3-dimethyl-1,2,3,4-tetrahydroquinoline-6-carboxylic acid] | 1.24
20 | CC1(C)Cc2c(C(=O)O)ccc(Cl)c2NC1c1cccc(N2CCOCC2)c1 (stereo not shown) [Example 111, 8-Chloro-3,3-dimethyl-2-(3-morpholin-4-yl-phenyl)-1,2,3,4-tetrahydro-quinoline-5-carboxylic acid] | 1.24
21 | CC1(C)Cc2cc(C(=O)O)ccc2NC1c1ccc(F)c(NS(=O)(=O)c2cccc(F)c2)c1 (stereo not shown) [Example 206, 2-(4-Fluoro-3-(3-fluorophenylsulfonamido)phenyl)-3,3-dimethyl-1,2,3,4-tetrahydroquinoline-6-carboxylic acid] | 1.33
22 | CC(C)(C)NC(=O)c1ccc(-c2cccc(C3Nc4ccc(C(=O)O)cc4CC3(C)C)c2)cc1 (stereo not shown) [Example 162, 2-(4′-tert-Butylcarbamoyl-biphenyl-3-yl)-3,3-dimethyl-1,2,3,4-tetrahydro-quinoline-6-carboxylic acid] | 1.2
23 | CC1(C)Cc2cc(C(=O)O)ccc2NC1c1cccc(C(=O)NS(=O)(=O)c2ccccc2)c1 (stereo not shown) [Example 175, 3,3-Dimethyl-2-(3-(phenylsulfonylcarbamoyl)phenyl)-1,2,3,4-tetrahydroquinoline-6-carboxylic acid] | 1.5
24 | CC(C)(Nc1cccc(C2Nc3c(cc(Cl)cc3C(=O)O)CC2(C)C)c1)C(=O)O (stereo not shown) [Example 80, 2-[3-(1-Carboxy-1-methyl-ethylamino)-phenyl]-6-chloro-3,3-dimethyl-1,2,3,4-tetrahydro-quinoline-8-carboxylic acid] | 1.72
25 | CC1(C)Cc2cc(C(=O)NS(C)(=O)=O)ccc2NC1c1cccc(N2CCN(c3ccc(Cl)cc3)CC2)c1 (stereo not shown) [Example 88, N-(2-{3-[4-(4-Chloro-phenyl)-piperazin-1-yl]-phenyl}-3,3-dimethyl-1,2,3,4-tetrahydro-quinoline-6-carbonyl)-methanesulfonamide] | 1.35
26 | CC1(C)Cc2cc(C(=O)O)ccc2NC1c1ccc(F)c(NS(=O)(=O)c2ccccc2F)c1 (stereo not shown) [Example 209, 2-(4-Fluoro-3-(2-fluorophenylsulfonamido)phenyl)-,3-dimethyl-1,2,3,4-tetrahydroquinoline-6-carboxylic acid] | 1.28
27 | CC1(C)Cc2ccc(C(=O)O)c(F)c2NC1c1cccc(N2CCOCC2)c1 (stereo not shown) [Example 137, 8-Fluoro-3,3-dimethyl-2-(3-morpholin-4-yl-phenyl)-1,2,3,4-tetrahydro-quinoline-7-carboxylic acid] | 1.26
28 | CC(C)(Nc1cccc(C2Nc3ccc(Cl)cc3CC2(C)C)c1)C(=O)O (stereo not shown) [Example 37, 2-[3-(6-Chloro-3,3-dimethyl-1,2,3,4-tetrahydro-quinolin-2-yl)-phenylamino]-2-methyl-propionic acid] | 2.19
29 | CC1(C)Cc2cc(C(=O)O)ccc2NC1c1cccc(NC(=O)c2ccc(F)cc2)c1 (stereo not shown) [Example 20, 2-[3-(4-Fluoro-benzoylamino)-phenyl]-3,3-dimethyl-1,2,3,4-tetrahydro-quinoline-6-carboxylic acid] | 1.25
30 | CC(=O)N1CCN(c2cccc(C3Nc4c(cc(Cl)cc4C(=O)O)CC3(C)C)c2)CC1 (stereo not shown) [Example 81, 2-[3-(4-Acetyl-piperazin-1-yl)-phenyl]-6-chloro-3,3-dimethyl-1,2,3,4-tetrahydro-quinoline-8-carboxylic acid] | 2.85
31 | CC1(C)Cc2cc(C(=O)O)ccc2NC1c1cc(F)cc(N2CCNCC2)c1 (stereo not shown) [Example 71, 2-(3-Fluoro-5-piperazin-1-yl-phenyl)-3,3-dimethyl-1,2,3,4-tetrahydro-quinoline-6-carboxylic acid] | 1.22
32 | CC(C)(C)c1ccc(-c2cccc(C3Nc4ccc(C(=O)NS(C)(=O)=O)cc4CC3(C)C)c2)cc1 (stereo not shown) [Example 83, N-[2-(4′-tert-Butyl-biphenyl-3-yl)-3,3-dimethyl-1,2,3,4-tetrahydro-quinoline-6-carbonyl]-methanesulfonamide] | 1.35
33 | CC1(C)Cc2cc(C(=O)O)cc(Cl)c2NC1c1cccc(N2CCOCC2)c1 (stereo not shown) [Example 112, 8-Chloro-3,3-dimethyl-2-(3-morpholin-4-yl-phenyl)-1,2,3,4-tetrahydro-quinoline-6-carboxylic acid] | 1.22
34 | CCS(=O)(=O)NC(=O)c1ccc2c(c1)CC(C)(C)C(c1cccc(N3CCOCC3)c1)N2 (stereo not shown) [Example 98, Ethanesulfonic acid [3,3-dimethyl-2-(3-morpholin-4-yl-phenyl)-1,2,3,4-tetrahydro-quinoline-6-carbonyl]-amide] | 1.44
